Data set [1] is described as follows: Neutron reflectometry (NR) of tethered POPC / POPC-d31 lipid bilayer membranes incubated with the substance and after rinse. In kind it is physicochemical. Particulars: for Peak of avobenzone CVO from bilayer center / Surface volume density: co-refined POPC-d31 and POPC. The procedure:
The interaction of avobenzone and calix[8]-PO3H2 was tested with single-membrane POPC (1-palmitoyl-2-oleoyl-sn-glycero-3-phosphocholine) tethered lipid bilayer membranes (tBLMs). Solvent-immersed tBLMs allowed for a characterization of the membrane before and after addition of avobenzone and calix[8]-PO3H2 from solution, thus mimicking the encounter of those substances by the membrane in the body. This differentiates tBLMs from conventionally used stacked lipid bilayer model systems in air. The chemical structure of the glycerophospholipid POPC consists of a zwitterionic phosphatidylcholine headgroup linked to a glycerol, which is ester-bound to two fatty acid groups—palmitic acid (C16:0) and oleic acid (C18:1). This fatty acid composition mimics that of phospholipids mainly found in the eukaryotic cell membrane, including keratinocytes. In addition to phospholipids, native eukaryotic membranes also contain glycolipids, sterols and various proteins, which are not included in the current simplified model system.
Neutron Reflectometry (NR) experiments were conducted with hydrogenated and deuterated POPC bilayers. Both data sets were simultaneously analyzed to obtain one structural model. NR measurements were performed with the CGD-Magik reflectometer at the NIST Center for Neutron Research (NCNR). Reflectivity curves were recorded for momentum transfer values 0.01≤qz≤0.25 Å^−1. For each measurement, adequate counting statistics were obtained after 5-7 h. The NCNR fluids cell allows for in situ solvent exchange; therefore, subsequent measurements were performed on the same sample area. The entire flow cell was maintained at room temperature (RT). Solvent exchange was accomplished by rinsing ˜10 ml of water through the cell (volume ˜1.3 ml) using a syringe.
A set of NR experiments was conducted with a hydrogenated POPC bilayer and another identical set of experiments with a deuterated POPC-d31 bilayer. After measurement of the as-prepared bilayer in H2O and D2O, avobenzone was added to the sample cell at a concentration of 100 μM dissolved in H2O and D2O. NR measurements were conducted while the bilayer was in contact with either solution. The sample was measured again after rinsing with H2O and D2O, respectively. Data for both bilayers were co-refined sharing conserved model parameters across data sets, in particular those associated with the volume profile of avobenzone. […] An identical set of measurements were performed with a 100 μM complex of 1:1 avobenzone:calix[8]-PO3H2 instead of pure avobenzone.
1D-component volume occupancy (CVO) profiles along the lipid bilayer normal were obtained. Bilayer fit parameters were the hydrocarbon thickness for each bilayer subsection, the bilayer completeness, and the thickness of the sub-membrane space. One roughness parameter was applied to all distributions. The thin layer of native silicon oxide was modelled by a single distribution with individual roughness and thickness parameters. Hermite splines defined by control points that were on average 15 Å apart were used to model the CVO profiles of avobenzone and calix[8]-PO3H2. The number of control points was iteratively refined during model optimization for each CVO profile. Fit parameters associated with each control point were a volume occupancy, a deviation from equidistant separation, and (for the CVO profile of the complex) a nSLD (neutron scattering length density) value between those of avobenzone and calix[8]-PO3H2. Such a variable nSLD per control point allowed us to separate individual CVO profiles for avobenzone (average nSLD ρ=1.37×10^−6 Å^−2) and calix[8]-PO3H2 (ρ=2.73×10^−6 […]). The exchange of labile protons in isotopically different buffers affects the nSLD of molecular components and was taken into account during data analysis. Optimization of model parameters was performed using the ga_refl and Refl1D software packages developed at the NCNR. […]

For data set [2] the following is noted: once exposed to sun; cited from earlier work.
For another data set, the system named is rat cell lines. The settings on record: cited from earlier work.
For the next data set, the system named is human cell lines. Particulars: cited from earlier work.
Setting [3] is: avobenzone alone, 100 μM incubation.

SMILES strings stand for the structures.

On to `COc1ccc(C(=O)CC(=O)c2ccc(C(C)(C)C)cc2)cc1` [avobenzone, 1-(4-methoxyphenyl)-3-(4-tertbutylphenyl)-propane-1,3-dione], for which, in data set [1] (setting [3]), the “Peak of avobenzone CVO from bilayer center” value is recorded as 10±3 Å and the Surface volume density is given as 3.0±0.5 Å^3/Å^2. Further, in data set [1] (avobenzone alone, Rinse), the “1 avobenzone per n lipids in outer leaflet” value is ~1 avobenzone per 2.1 lipids in outer leaflet, the “Peak of avobenzone CVO from bilayer center” value was 7±3 Å and the Surface volume density is 3.8±0.4 Å^3/Å^2. In addition, the “Penetration of the lipid bilayer (in words)” value in data set [1] (interacts at hydrocarbon/headgroup interface of the substrate-distal leaflet) is “without penetrating the bilayer to the substrate-proximal leaflet”. In data set [2], the Duration of photoprotection was 30 min.

For the compound `O=P(O)(O)c1cc2c(O)c(c1)Cc1cc(P(=O)(O)O)cc(c1O)Cc1cc(P(=O)(O)O)cc(c1O)Cc1cc(P(=O)(O)O)cc(c1O)Cc1cc(P(=O)(O)O)cc(c1O)Cc1cc(P(=O)(O)O)cc(c1O)Cc1cc(P(=O)(O)O)cc(c1O)Cc1cc(P(=O)(O)O)cc(c1O)C2` [calix[8]-PO3H2, p-phosphonated calix[8]arene], in the data set with rat cell lines, the “Toxicity towards rat cell lines” value is “non-toxic”. In the data set on human cell lines, the “Toxicity towards human cell lines” value is listed as “non-toxic”.

The values are drawn from patent publication US11554084B2, “Compositions incorporating avobenzone-calix[8]-PO3H2 complex” (University of Cincinnati, priority 2020, dated 2023).
